Measurements reported in patent publication US6664241B2, “Water-soluble amide derivatives of polyene macrolides and preparation and uses thereof” (Micrologix Biotech Inc., priority 2000, dated 2003).
Converted amounts (≈) assume the structure as drawn.

Key:
[1] = test system: C. albicans; assay: 7 day kidney bioburden evaluation in neutropenic mice challenged with C. albicans; assay type: in vivo, Swiss-Webster mice; settings: Candida albicans, ip, 168 h, intraperitoneally once daily for 7 days, 50% of animals with 2 log10 reduction in kidney CFU
Procedure: (§1) A variety of the compounds synthesized as described in Section 5, supra, were tested in various in vivo assays, as described below. The results of the various assays are provided in TABLE 3, presented at the end of this section. In all of the in vivo assays described, the test compounds, in the form of the aspartate salts, were formulated in an aqueous vehicle (5% mannitol in sterile water; OSMITROL, Baxter Healthcare, Deerfield, Ill.), followed by appropriate dilutions. The formulations were prepared fresh before dosing.
(§2) AmB and AME were also tested for comparison. For AmB, the commercially available FUNGIZONE (Bristol-Meyers Squibb Co.) was used. Reported values are based upon the weight of the AmB active ingredient, not on the basis of the weight of the FUNGIZONE powder. AME was formulated in OSMITROL as described for the test compounds.
Various polyene macrolide amide derivatives of the invention were evaluated for their protective effect when administered intraperitoneally once daily for 7 days to neutropenic mice challenged with live C. albicans.
Swiss-Webster mice (Simonsen Laboratories, Gilroy, Calif.) were made neutropenic by intravenous administration of 5-fluorouracil (150 mg/kg) on study day −1. On study day 0, all mice received by intravenous injection a single inoculum (0.2 mL) containing as estimated 5.0×10^4 CFU of C. albicans. The day of inoculation was designated as study day 0. Beginning the day after infection (on study day 1), mice were treated intraperitoneally with vehicle alone or formulated test compound, once daily for 7 consecutive days.
(§3) The mice were observed daily from study day 1 through study day 8 (1 day after the last dose). Mice found dead or euthanized in extremis were removed from the study without further processing. Surviving mice were euthanized by inhalation of CO2 on study day 8 and both kidneys from each mouse were removed. Each pair of removed kidneys was homogenized in 3 mL of ice-cold PBS containing 10% glycerol. A portion of each homogenate was used to determine log10 CFU per kidney using SDA plates (48 hours of incubation at 30° C.). Kidney log10 CFU data were analyzed using a t-test. The criterion for a statistically significant response was set at p<0.01.
(§4) For comparison, the results for AmB and AME are also provided. Efficacy was defined for individual animals as a greater than 2 log10 reduction in kidney CFU relative to the mean vehicle control value.

[2] = test system: C. albicans; assay: Minimum Inhibitory Concentrations (MICs) against C. albicans, NCCLS M27-A broth dilution; assay type: cell-based; settings: Candida albicans, read-out: MIC
Procedure: For each compound synthesized, Minimum Inhibitory Concentrations (MICs) against C. albicans were determined as described in Reference Method for Broth Dilution Antifungal Susceptibility Testing of Yeasts, Approved Standard, NCCLS document M27-A (ISBN 1-56238-328-0), NCCLS, 940 West Valley Road, Suite 1400, Wayne, Pa. 19087, 1997.

[3] = Ascending single-dose nephrotoxicity study in rabbits; assay type: in vivo, Female New Zealand white rabbits; settings: female, New Zealand white, rabbit, in vivo, ascending single intravenous infusion doses, urine volume, BUN, creatinine, read-out: NOAEL acute rabbit
Procedure: as §1
AmB and AME were also tested for comparison. For AmB, the commercially available FUNGIZONE (Bristol-Meyers Squibb Co.) was used. […]
Various polyene macrolide amide derivatives of the invention were evaluated to determine the intravenous dose of administered compound that produces nephrotoxicity in rabbits. Nephrotoxicity was monitored by measuring urine volume and blood urine nitrogen (BUN) and creatinine. […]
Ascending single doses were administered by intravenous infusion into an ear vein at a rate of 0.6 mL/min. […] Body weights were recorded before each dose, as well as 2 days after the last dose. Blood samples were collected from the rabbits two days prior to the first dose (study day −2) and approximately 24 hr after each dose and analyzed for BUN and creatinine. […]

[4] = Maximum non-lethal dose (NLD), single intravenous dose in mice; assay type: in vivo, Swiss-Webster male mice; settings: test compounds as aspartate salts in 5% mannitol, AmB as FUNGIZONE
In short: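 Groups of four male Swiss-Webster mice received one intravenous dose of aspartate salt in 5% mannitol/water, freshly prepared. Doses were raised or lowered after each round until the maximum non-lethal dose was found.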

[5] = test system: C. albicans; assay: 5 day kidney bioburden evaluation in immunocompetent mice challenged with C. albicans; assay type: in vivo, Swiss-Webster mice; settings: for effective in % of mice: greater than 2 log10 reduction in kidney CFU
Procedure: as §1, §2
Various polyene macrolide amide derivatives of the invention were evaluated for their protective effect when administered intraperitoneally once daily for 5 days to immunocompetent mice challenged with live C. albicans.
C. albicans was grown on Sabouraud dextrose agar (SDA) plates for 48 hr. Colonies were harvested and washed twice by centrifugation in phosphate-buffered saline (PBS). The washed pellets were resuspended in PBS and diluted to achieve the desired number of fungi per milliliter. A portion of the inoculum was plated on SDA plates to determine the colony-forming units (CFU) per milliliter.
Swiss-Webster mice (Simonsen Laboratories, Gilroy, Calif.) were administered by intravenous injection a single inoculum (0.2 mL) containing as estimated 2.0×10^5 CFU of C. albicans. The day of inoculation was designated as study day 0. Beginning three days after injection, mice were treated intraperitoneally with vehicle alone or formulated test compound once daily for 5 consecutive days.
as §3, with “day 0” for “day 1”, “day 10 (3 days” for “day 8 (1 day”, “day 10” for “day 8”
as §4

## C[C@@H]1[C@H](O)[C@@H](C)/C=C/C=C/C=C/C=C/C=C/C=C/C=C/[C@H](O[C@@H]2O[C@H](C)[C@@H](O)[C@H](N)[C@@H]2O)C[C@@H]2O[C@](O)(C[C@@H](O)C[C@@H](O)[C@H](O)CC[C@@H](O)C[C@@H](O)CC(=O)O[C@H]1C)C[C@H](O)[C@H]2C(=O)O [AMB, amphotericin B, reference compound]
[1]
  ED50: 0.3 mg/kg
[2]
  MIC: 0.125 to 0.25 µg/mL (≈ 0.135 to 0.271 µM)
[3]
  NOAEL: 0.375 mg/kg
[4]
  NLD acute mice: 1.5 mg/kg
[5]; 2 mg/kg/day intraperitoneally
  effective in % of mice: 20%
[5]; 4 mg/kg/day intraperitoneally
  effective in % of mice: 60%
[5]; 8 mg/kg/day intraperitoneally
  effective in % of mice: 100%
[5]; 16 mg/kg/day intraperitoneally
  effective in % of mice: 78%
[5]; Candida albicans, ip, 120 h, intraperitoneally once daily for 5 days, immunocompetent mice, C. albicans, 50% of animals with 2 log10 reduction in kidney CFU, read-out: ED50 mice 5 day
  ED50: 3 mg/kg
[5]; intraperitoneally, 5 day kidney bioburden model, calculated
  ED50: 3 mg/kg/day
